Measurements reported in US11787799B2 (priority 2015, dated 2023).
Several values for one entry are separate records, joined by “and”; a condition that tells them apart may be missing. Equal values may be shown once.

What was measured:
Coxsackievirus B3-H3 = experiment: microbe, parasite or virus in culture; type: cell-based; details: read-out: EC50 CVB3-H3
Poliovirus 1 = experiment: microbe, parasite or virus in culture; type: cell-based; details: read-out: EC50 PV1
Poliovirus 3 = experiment: microbe, parasite or virus in culture; type: cell-based; details: read-out: EC50 PV3
Enterovirus 71 = experiment: microbe, parasite or virus in culture; type: cell-based; details: read-out: EC50 EV71
Enterovirus D68/Fermon = experiment: Antiviral assay, Enterovirus D68 strain Fermon in RD cells; type: cell-based
[1] = test system: Enterovirus D68/US/Mo/14-18949; experiment: Antiviral assay, Enterovirus D68 strain US/Mo/14-18949 in RD cells; type: cell-based
[2] = test system: Enterovirus D68/US/KY/14-18953; experiment: Antiviral assay, Enterovirus D68 strain US/KY/14-18953 in RD cells; type: cell-based
Coxsackievirus B1 = experiment: microbe, parasite or virus in culture; type: cell-based; details: read-out: EC50 CVB1
Coxsackievirus B2 = experiment: microbe, parasite or virus in culture; type: cell-based; details: read-out: EC50 CVB2
Coxsackievirus B4 = experiment: microbe, parasite or virus in culture; type: cell-based; details: read-out: EC50 CVB4
Coxsackievirus B5 = experiment: microbe, parasite or virus in culture; type: cell-based; details: read-out: EC50 CVB5
Echovirus 7 = experiment: microbe, parasite or virus in culture; type: cell-based; details: read-out: EC50 ECHO07
Coxsackievirus A9 = experiment: microbe, parasite or virus in culture; type: cell-based; details: read-out: EC50 COX A9
Echovirus 6 = experiment: microbe, parasite or virus in culture; type: cell-based; details: read-out: EC50 ECHO06

| SMILES | EC50 (Coxsackievirus B3-H3) [nM] | EC50 (Poliovirus 1) [nM] | EC50 (Poliovirus 3) | EC50 (Enterovirus 71) [nM] | EC50 (Enterovirus D68/Fermon) [nM] | EC50 [1] [nM] | EC50 [2] [nM] | CC50 (HeLa-RW cells) [nM] | CC50 (LLC cells) [nM] | CC50 (RD cells) [nM] | EC50 (Coxsackievirus B1) [nM] | EC50 (Coxsackievirus B2) [nM] | EC50 (Coxsackievirus B4) [nM] | EC50 (Coxsackievirus B5) [nM] | EC50 (Echovirus 7) [nM] | EC50 (Coxsackievirus A9) [nM] | EC50 (Echovirus 6) [nM] |
| --- | --- | --- | --- | --- | --- | --- | --- | --- | --- | --- | --- | --- | --- | --- | --- | --- | --- |
| CC(C)n1ncc2c(C(=O)Nc3ccc(F)cn3)cc(-c3cccs3)nc21 [JX-075] | 700 ± 100 | > 10000 | > 10000 nM | 1200 | < 400 | < 400 | < 400 | 37500 | > 200000 | 25000 | – | – | – | – | – | – | – |
| CC(C)n1ncc2c(C(=O)N3CCc4cccnc43)cc(-c3cccs3)nc21 [JX-076] | 9400 | > 10000 | > 10000 nM | 12500 | 4000 | 4000 | 4700 | 37500 | 50000 | 45000 | – | – | – | – | – | – | – |
| CC(C)n1ncc2c(C(=N)Nc3ccc(F)cc3)cc(-c3cccs3)nc21 [JX-067] | – | – | – | – | 1600 | 1270 ± 120 | 2270 ± 230 | 18000 | – | 100000 | – | – | – | – | – | – | – |
| CC(C)(C)n1ncc2c(C(=O)Nc3ccccc3F)cc(-c3cccs3)nc21 [JX-013] | – | – | – | – | 1330 ± 230 | 1070 ± 230 | 1800 ± 440 | – | – | > 200000 | – | – | – | – | – | – | – |
| CC(C)n1ncc2c(C(=O)Nc3cccnc3)cc(-c3ccsc3)nc21 [JX-060] | 600 | > 10000 | > 10000 nM | 2400 | – | – | – | 18000 | 37000 | – | 600 | 600 | 600 | 600 | – | – | – |
| CC(C)n1ncc2c(C(=O)Nc3ccccn3)cc(-c3ccccc3)nc21 [JX-070] | 1600 | > 10000 | > 10000 nM | 700 | 350 | – | 700 | 18800 | 12500 | 12500 | 1200 | 1600 | – | – | 2300 | – | – |
| CC(C)n1ncc2c(C(=O)Nc3ccncn3)cc(-c3cccs3)nc21 [JX-043] | 600 | > 10000 | > 10000 nM | 500 ± 100 | – | – | – | 20000 | 50000 | – | 600 | 600 | 500 | 600 | 700 | 500 | 200 |
| CC(C)n1ncc2c(C(=O)Nc3cc(C(N)=O)ccc3F)cc(-c3cccs3)nc21 [JX-073] | 800 | 5000 | 5000 nM and 6300 nM | 500 | < 400 | – | < 400 | 18800 | 25000 | 25000 | 600 | 1200 | – | – | 1200 | – | – |
| CC(C)n1ncc2c(C(=O)Nc3ccc(F)cc3)cc(-c3ccco3)nc21 [JX-026] | 2400 | > 25000 | > 25000 nM | 2600 ± 300 | 1200 | 1000 ± 20 | 1300 ± 200 | > 200000 | > 200000 | > 200000 | 3300 | 3300 | 3300 | 3300 | – | – | 2400 |
| CC(C)n1ncc2c(C(=O)Nc3ccncc3)cc(-c3cccs3)nc21 [JX-042] | 600 | > 10000 | > 10000 nM | 400 | – | – | – | 6000 | 6250 | – | 600 | 600 | 600 | 600 | – | 500 | 200 |
| CC(C)n1ncc2c(C(=O)Nc3cccc(F)c3F)cc(-c3cccs3)nc21 [JX-019] | 2700 ± 400 | > 25000 | > 25000 nM | 3000 | – | – | – | > 200000 | 75000 | – | – | – | – | – | – | – | 2000 ± 600 |
| CC(C)n1ncc2c(C(=O)Nc3ccc(F)cc3)cc(C3CC3)nc21 [JX-038] | 4700 | > 10000 | > 10000 nM | 3200 ± 100 | – | – | – | 10000 | 12500 | – | 4700 | 4700 | – | – | – | 3000 | 3900 |
| CC(C)n1ncc2c(C(=O)Nc3ccccc3F)cc(-c3nccs3)nc21 [JX-007] | – | – | – | – | 800 ± 280 | 660 ± 100 | 1200 | – | – | > 200000 | – | – | – | – | – | – | – |
| CC(C)n1ncc2c(C(=O)N3CCc4cc(F)ccc43)cc(-c3cccs3)nc21 [JX-048] | 1500 | > 10000 | > 10000 nM | 1300 ± 200 | 2800 ± 450 | 2100 ± 600 | 4100 ± 1200 | 20000 | > 200000 | > 200000 | 1500 | 1500 | 1200 | 1200 | – | 1200 | 1100 |
| CC(C)n1ncc2c(C(=N)Nc3cccnc3)cc(-c3cccs3)nc21 [JX-065] | – | – | – | – | 6300 | 4700 ± 1600 | 6300 | – | – | 75000 | – | – | – | – | – | – | – |
| CC(C)n1ncc2c(C(=O)Nc3cc(F)cc(F)c3)cc(-c3cccs3)nc21 [JX-016] | > 10000 | > 10000 | > 10000 nM | – | – | – | – | – | – | – | > 10000 | > 10000 | > 10000 | > 10000 | – | – | – |
| CC(C)n1ncc2c(C(=O)Nc3c(F)cc(F)cc3F)cc(-c3cccs3)nc21 [JX-020] | 1800 ± 700 | > 25000 | > 25000 nM | 3000 | – | – | – | > 200000 | > 200000 | – | 6000 | – | 3100 | 2300 | – | 2400 | 2400 |
| CC(C)n1ncc2c(C(=O)Nc3cc(F)ccc3F)cc(-c3cccs3)nc21 [JX-018] | 2700 ± 400 | > 25000 | > 25000 nM | 3500 | – | – | – | > 200000 | 100000 | – | – | – | – | – | – | 2400 | 2600 ± 300 |
| CC(C)n1ncc2c(C(=O)Nc3cccc(S(N)(=O)=O)c3)cc(C3CC3)nc21 [JX-055] | – | – | – | – | 700 ± 200 | 400 ± 200 | 730 ± 120 | – | – | > 200000 | – | – | – | – | – | – | – |
| CC(C)n1ncc2c(C(=O)Nc3ccccc3S(N)(=O)=O)cc(-c3cccs3)nc21 [JX-033] | 2600 ± 400 | > 25000 | > 25000 nM | 2500 ± 700 | – | – | – | 10000 | 25000 | – | 3900 ± 1100 | 3900 ± 1100 | 3100 ± 100 | 2700 ± 600 | – | 2400 | 2400 |
